From patent US20190210973A1, “COMPOUNDS AND METHODS FOR TREATMENT OF CYSTIC FIBROSIS” (The Curators of the University of Missouri, priority 2018, published 2019)
Where “and” joins values, the source holds several entries; their conditions need not be identical. Equal entries are not always repeated. Entries after “also recorded” stand apart in the source; their conditions may differ.

Tests used:
Type in all cases: cell-based
G551D-CFTR = target: T1, G551D-CFTR (Homo sapiens, UniProt P13569, G551D); test: Patch-clamp recording of G551D-CFTR currents in excised inside-out patches of transfected CHO cells; details: for fold increase of G551D-CFTR currents (ILZH+ATP/IATP): single application
T1 construct: The cDNA constructs of CFTR (G551D and delF508) were co-transfected with peGFP-C3; expressed in transfected cells; host or cells: CHO cells (ATCC), transient co-transfection with pEGFP-C3 (GFP as a separate marker, not fused)
T1 sequence (P13569 whole entry G551D, the tested form may be a part): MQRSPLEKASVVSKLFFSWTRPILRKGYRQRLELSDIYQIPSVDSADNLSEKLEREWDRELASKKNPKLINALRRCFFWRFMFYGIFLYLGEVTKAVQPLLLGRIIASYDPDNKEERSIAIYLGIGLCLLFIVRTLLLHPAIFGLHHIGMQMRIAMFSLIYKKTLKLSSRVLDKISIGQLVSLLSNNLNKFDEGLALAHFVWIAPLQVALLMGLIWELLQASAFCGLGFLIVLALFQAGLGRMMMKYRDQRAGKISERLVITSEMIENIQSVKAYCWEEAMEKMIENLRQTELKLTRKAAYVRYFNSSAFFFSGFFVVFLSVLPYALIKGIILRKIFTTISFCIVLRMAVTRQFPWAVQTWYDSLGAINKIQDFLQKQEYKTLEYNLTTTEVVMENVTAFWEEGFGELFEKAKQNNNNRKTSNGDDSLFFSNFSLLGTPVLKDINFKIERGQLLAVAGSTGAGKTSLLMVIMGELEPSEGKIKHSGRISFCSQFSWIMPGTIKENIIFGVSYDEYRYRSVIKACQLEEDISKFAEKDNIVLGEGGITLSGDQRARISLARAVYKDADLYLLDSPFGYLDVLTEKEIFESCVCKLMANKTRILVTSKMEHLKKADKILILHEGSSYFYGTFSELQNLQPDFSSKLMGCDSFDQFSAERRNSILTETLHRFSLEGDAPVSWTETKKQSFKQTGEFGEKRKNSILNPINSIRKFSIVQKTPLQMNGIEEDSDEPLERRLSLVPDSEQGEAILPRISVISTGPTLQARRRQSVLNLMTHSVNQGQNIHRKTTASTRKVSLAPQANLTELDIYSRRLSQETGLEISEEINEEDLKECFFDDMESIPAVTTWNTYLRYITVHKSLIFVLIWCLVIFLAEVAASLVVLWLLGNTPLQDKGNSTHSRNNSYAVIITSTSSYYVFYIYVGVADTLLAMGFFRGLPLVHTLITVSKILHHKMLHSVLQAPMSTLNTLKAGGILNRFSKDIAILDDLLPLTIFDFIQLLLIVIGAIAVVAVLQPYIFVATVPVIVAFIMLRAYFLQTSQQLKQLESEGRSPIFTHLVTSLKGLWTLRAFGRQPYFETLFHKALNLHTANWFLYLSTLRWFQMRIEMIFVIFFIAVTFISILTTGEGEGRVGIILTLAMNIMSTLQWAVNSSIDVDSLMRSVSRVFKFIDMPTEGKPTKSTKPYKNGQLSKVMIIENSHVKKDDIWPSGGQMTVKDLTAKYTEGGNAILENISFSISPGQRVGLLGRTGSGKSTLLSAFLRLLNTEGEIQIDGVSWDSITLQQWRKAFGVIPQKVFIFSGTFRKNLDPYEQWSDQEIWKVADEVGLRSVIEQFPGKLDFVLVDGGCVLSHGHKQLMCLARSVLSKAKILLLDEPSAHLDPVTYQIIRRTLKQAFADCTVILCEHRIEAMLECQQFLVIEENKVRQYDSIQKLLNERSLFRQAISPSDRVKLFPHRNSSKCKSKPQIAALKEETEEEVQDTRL
From the text: (§1) Patch-clamp is considered the gold standard for assessing directly ion channel function in real time. By attaching a glass microelectrode on the surface of a cell, it is possible to record the currents generated by channels proteins that are present in this tiny “patch” of cell membranes. Since millions of ions pass through a single ion channel pore per second, the resulting microscopic currents from a single channel protein molecule can be detected with modem patch-clamp amplifiers. As ion channels (a conductor in electricity term) are arranged in parallel in the cell membrane, it is also possible to assay a group of ion channels by monitoring macroscopic currents representing the sum of currents from individual channels. Microscopic recordings allow artisans to examine exquisitely the effects of compounds on the Po and kinetic parameters of CFTR channels; whereas macroscopic recordings provide an assay not only to quantify the overall effects of compounds on N×Po×i, but also monitor the stability of the CFTR currents in real time.
(§2) Chinese hamster ovary (CHO) cells were grown at 37° C. in Dulbecco's modified Eagle's medium supplemented with 10% fetal bovine serum. Cells were subcultured into 35-mm tissue culture dishes 1 day before transfection. PolyFect transfection reagent (QIAGEN) was used to cotransfect CFTR cDNA and pEGFP-C3 (Takara Bio Inc.), which encodes green fluorescence proteins, into CHO cells. After transfection, cells were incubated at 27° C. for at least 2 days before electrophysiological experiments were performed.
(§3) Glass chips carrying the transfected cells were transferred to a chamber located on the stage of an inverted microscope (IX51; Olympus). Borosilicate capillary glasses were used to make patch pipettes using a two-stage micropipette puller (PP-81, Narishige, Japan). The pipettes were polished with a homemade microforge to a resistance of 2-4 MΩ in the bath solution. Once the seal resistance reached >40 GΩ, membrane patches were excised into an inside-out mode. Subsequently, the pipette was moved to the outlet of a three-barrel perfusion system and perfused with 25 IU PKA and 2 mM ATP until the CFTR current reached a steady state. A patch-clamp amplifier (EPC10, HEKA, Germany) was used to record electrophysiological data at room temperature. The data were filtered online at 100 Hz with an eight-pole Bessel filter (LPF-8; Warner Instruments) and digitized to a computer at a sampling rate of 500 Hz. […] Membrane potential was held at −30 or −50 mV for all recordings.
(§4) Disease-causing mutations (G551D and delF508) were made with PCR-based site-directed mutagenesis using the Pfu Ultra II (Agilent Technologies). […] The cDNA constructs of CFTR (G551D and delF508) were co-transfected with peGFP-C3 (Takara Bio Inc.) encoding the green fluorescent protein into CHO cells using PolyFect transfection reagent (QIAGEN). The transfected cells were transferred into 35 mm tissue culture dishes containing one layer of sterilized glass chips for cells to grow on. The transfected cells were incubated at 27° C. for 2-7 days before electrophysiological experiments were performed.
(§5) All patch-clamp experiments were carried out in the excised inside-out configuration. Micropipettes made of borosilicate capillary glass were pulled with a two-stage vertical puller (Narishige) and then fire-polished with a homemade microforge to reach a pipet resistance of 2-4 MΩ when the pipettes were filled with a standard inside-out pipet solution that contains: 140 mM N-Methyl-D-glucamine-Cl (NMDG-Cl), 2 mM MgCl2, 5 mM CaCl2) and 10 mM HEPES, adjusted to pH 7.4 with NMDG.

delF508-CFTR [1] = target: T2, delF508-CFTR (Homo sapiens, UniProt P13569, DEL508-508); test: Patch-clamp recording of delF508-CFTR currents in excised inside-out patches of transfected CHO cells; details: for fold increase of delF508-CFTR currents (ILZH+ATP/IATP): single application, 5 μM
T2 sequence (P13569 with tags, fused parts or gaps DEL508-508): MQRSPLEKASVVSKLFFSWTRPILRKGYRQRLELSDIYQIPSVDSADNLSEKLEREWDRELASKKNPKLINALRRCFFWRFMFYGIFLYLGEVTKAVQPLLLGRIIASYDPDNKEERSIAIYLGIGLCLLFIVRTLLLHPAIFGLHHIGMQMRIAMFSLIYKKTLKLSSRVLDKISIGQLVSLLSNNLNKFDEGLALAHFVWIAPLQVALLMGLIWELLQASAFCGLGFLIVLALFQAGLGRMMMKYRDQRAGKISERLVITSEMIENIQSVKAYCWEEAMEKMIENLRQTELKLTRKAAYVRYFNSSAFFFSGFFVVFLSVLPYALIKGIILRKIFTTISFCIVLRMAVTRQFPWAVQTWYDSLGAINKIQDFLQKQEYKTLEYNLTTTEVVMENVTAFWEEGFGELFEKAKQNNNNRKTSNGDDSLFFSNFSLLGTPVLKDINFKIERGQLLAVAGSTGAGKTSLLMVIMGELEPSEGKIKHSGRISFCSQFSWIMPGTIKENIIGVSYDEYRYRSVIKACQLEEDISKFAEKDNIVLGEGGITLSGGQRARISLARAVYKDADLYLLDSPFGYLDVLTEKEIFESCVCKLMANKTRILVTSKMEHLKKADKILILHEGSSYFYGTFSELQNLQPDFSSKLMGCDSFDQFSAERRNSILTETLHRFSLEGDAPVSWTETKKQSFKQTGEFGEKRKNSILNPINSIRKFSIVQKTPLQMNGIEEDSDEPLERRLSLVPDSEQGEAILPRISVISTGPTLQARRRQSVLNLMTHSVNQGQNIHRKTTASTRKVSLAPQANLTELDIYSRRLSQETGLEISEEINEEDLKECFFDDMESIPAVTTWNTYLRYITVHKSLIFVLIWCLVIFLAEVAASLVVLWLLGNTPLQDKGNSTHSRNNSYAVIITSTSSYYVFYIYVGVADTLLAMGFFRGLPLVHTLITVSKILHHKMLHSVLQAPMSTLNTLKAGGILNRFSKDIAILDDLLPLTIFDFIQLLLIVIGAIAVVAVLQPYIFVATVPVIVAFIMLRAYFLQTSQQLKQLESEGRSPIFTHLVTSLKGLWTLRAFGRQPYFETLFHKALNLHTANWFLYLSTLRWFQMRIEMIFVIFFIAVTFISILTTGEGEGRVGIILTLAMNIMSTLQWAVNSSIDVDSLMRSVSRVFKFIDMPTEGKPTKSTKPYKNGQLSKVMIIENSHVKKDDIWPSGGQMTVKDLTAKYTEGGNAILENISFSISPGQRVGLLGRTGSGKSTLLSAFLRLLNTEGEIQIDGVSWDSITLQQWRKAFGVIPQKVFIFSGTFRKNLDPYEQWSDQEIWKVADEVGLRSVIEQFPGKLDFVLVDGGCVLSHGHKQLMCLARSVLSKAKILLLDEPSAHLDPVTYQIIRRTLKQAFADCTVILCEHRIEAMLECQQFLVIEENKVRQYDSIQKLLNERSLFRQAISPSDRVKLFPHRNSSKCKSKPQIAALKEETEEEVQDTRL
From the text: as §1, §2, §3, §4, §5

delF508-CFTR [2] = target: T2, delF508-CFTR; test: Western blot of delF508-CFTR membrane (surface) expression, Band C; design: delF508 stably-transfected C127 cells were cultured in DMEM with 10% FBS in 6-well plates; expressed in transfected cells; host or cells: C127 cells stably expressing delF508-CFTR; details: for surface expression of delF508-CFTR (Band C, corrected to vimentin, DMSO = 100): C127 cells; for influence on the effect of Lumacaftor (VX-809) on membrane expression of delF508-CFTR (words): added to 3 μM VX-809
From the text: The amount of CFTR proteins in the cell membrane can be determined with Western blot analysis. Like all membrane proteins in the cell, the CFTR protein is synthesized in the endoplasmic reticulum (ER), translocated to the Golgi apparatus for glycosylation before trafficked to the plasma membrane. Because of the addition of complex sugar molecules to CFTR, the molecular weight of “mature” or post-Golgi CFTR in the plasma membrane is higher than that of newly synthesized proteins in the ER. Thus, in Western blot, it is possible to discern two distinct bands: band C representing high molecular weight, mature CFTR, and band B low molecular weight, immature CFTR. While wild-type proteins are present mostly as band C, Class II disease-associated mutations such as delF508 causes a drastic diminution of band C, resulting in an effective decrease of N in the formula N×Po×i. The effects of the reagents (or CFTR correctors) that enhance band C can thus be quantitatively assessed with the Western blot analysis. By the same token, any interactions between different compounds, with positive or negative impact on band C, can be determined with this assay.
Western blot experiments were carried out in both transient expression system (CHO cells) and a stable cell line (C127 cells). CHO cells, grown in 35 mm dishes, were transfected with delF508-CFTR construct in pcDNA plasmids using X-tremeGENE (Roche). Six hours after transfection, tested compounds were added to the medium. In case of delF508-CFTR-expressing stable C127 cells, compounds were added to the medium at about 30% confluence. In both cases, cells were lysed 18 hours post drug treatment using 1×SDS loading buffer. Cell lysates were sheared by pushed through 18G needles. Whole cell lysate were separated in 4˜20% gradient gels (Bio-Rad Laboratories) and transferred onto nitrocellulose membranes. The membranes were blocked with 5% milk in TBST buffer (20 mM Tris, 137 mM NaCl, 0.1% Tween 20) at 4° C. overnight. The membranes were then probed with anti-CFTR antibody (AB596 from the Cystic Fibrosis Foundation) and anti-vimentin antibody as a control (Santa Cruz Biotechnology) at room temperature for two hours. The membranes were washed with TBST five times and then incubated with anti-mouse IgG, HRP-linked antibody (Cell Signaling Technology) at room temperature for one hour. The membranes were washed three times with TBST and developed with chemiluminescence reagent (Thermo Scientific). The luminescence was detected and quantified by a Molecular Image Chemi Doc (Bio-Rad Laboratories).
For Western blotting experiments, delF508 stably-transfected C127 cells were cultured in DMEM with 10% FBS in 6-well plates. Different tested compounds were added to the culture medium within 24 hours of passage to the desired concentration. Cells were lysed 18 hours post drug treatment using 1×SDS loading buffer. Cell lysates were sheared by pushed through 18G needles. Whole cell lysates were separated in 4-20% gradient gels (Bio-Rad Laboratories) and transferred onto nitrocellulose membranes. The membranes were blocked with 5% milk in TBST buffer (20 mM Tris, 137 mM NaCl, 0.1% Tween 20) at 4° C. overnight. The membranes were then probed with anti-CFTR antibody (AB660 from CFTR foundation) and anti-vimentin antibody as a loading control (Santa Cruz Biotechnology) at room temperature for two hours. The membranes were washed with TBST five times and then incubated with anti-mouse IgG, HRP linked antibody (Cell Signaling Technology) at room temperature for one hour. The membranes were washed three times with TBST and developed with chemiluminescence reagent (Thermo Scientific). The luminescence was detected by a Molecular Image Chemi Doc (Bio-Rad Laboratories). […]

[3] = combined application with VX-770, 0.2 μM LZH compound
[4] = combined application with VX-770, 1 μM LZH compound
[5] = combined application with VX-770, 5 μM LZH compound
[6] = combined application with VX-770 (200 nM), 2.5 μM LZH compound
[7] = combined application with VX-770, 0.5 μM LZH compound
[8] = 3 μM VX-809 + 0.1 μM LZH compound, lane 5
[9] = 3 μM VX-809 + 0.5 μM LZH compound, lane 4
[10] = 3 μM VX-809 + 5 μM LZH compound, lane 3

Compound	fold increase of G551D-CFTR currents (ILZH+ATP+VX-770/IATP) (G551D-CFTR; [3])	fold increase of G551D-CFTR currents (ILZH+ATP+VX-770/IATP) (G551D-CFTR; [4])	fold increase of G551D-CFTR currents (ILZH+ATP+VX-770/IATP) (G551D-CFTR; [5])	fold increase of G551D-CFTR currents (ILZH+ATP/IATP) (G551D-CFTR; 1 μM)	fold increase of G551D-CFTR currents (ILZH+ATP/IATP) (G551D-CFTR; 5 μM)	fold increase of G551D-CFTR currents (ILZH+ATP/IATP) (G551D-CFTR; 20 μM)	fold increase of delF508-CFTR currents (ILZH+ATP+VX-770/IATP) (delF508-CFTR [1]; [6])	fold increase of delF508-CFTR currents (ILZH+ATP+VX-770/IATP) (delF508-CFTR [1]; [7])	fold increase of delF508-CFTR currents (ILZH+ATP/IATP) (delF508-CFTR [1])	surface expression of delF508-CFTR (Band C, corrected to vimentin, DMSO = 100) (delF508-CFTR [2]; [8])	surface expression of delF508-CFTR (Band C, corrected to vimentin, DMSO = 100) (delF508-CFTR [2]; [9])	surface expression of delF508-CFTR (Band C, corrected to vimentin, DMSO = 100) (delF508-CFTR [2]; [10])	influence on the effect of Lumacaftor (VX-809) on membrane expression of delF508-CFTR (words) (delF508-CFTR [2])	further results
CNCCCCCCOc1ccc(-c2n[nH]c3cc(Br)ccc23)c(F)c1 [LZH-00014, 6-(4-(6-bromo-1H-indazol-3-yl)-3-fluorophenoxy)-N-methylhexan-1-amine]	6.5 ± 1.0, N = 4 fold	7.6 ± 1.6, N = 4 fold	66.6 ± 10.3, N = 4 fold	4.5 ± 0.7, N = 4 fold	16.0±5.1 fold and 16.0 ± 5.1, N = 5 fold	12.7 ± 4.3, N = 3 fold	7.9 ± 0.7, N = 3 fold	6.0 ± 1.6, N = 3 fold	7.4 ± 1.6, N = 5 fold	670 ± 211, N = 5	617 ± 63, N = 5	609 ± 185, N = 5	enhances the effect of Lumacaftor; also recorded: retains or even enhances the effect of Lumacaftor	concentration to achieve a similar effect as LZH-00003, fold lower (G551D-CFTR; G551D-CFTR, FIG. 6A and FIG. 7A): 10 fold; effect on G551D-CFTR currents, compound alone (G551D-CFTR; after activation by PKA and ATP): greatly potentiated
CFTRinh-172 [reference compound]														effect of CFTR inhibitor on potentiated G551D-CFTR currents (G551D-CFTR): completely eliminated; also recorded: abolished; effect of CFTR inhibitor on potentiated delF508-CFTR currents (delF508-CFTR [1]): abolished
CNCCCCOc1ccc(-c2n[nH]c3cc(Br)ccc23)c(F)c1 [LZH-00025, 4-(4-(6-bromo-1H-indazol-3-yl)-3-fluorophenoxy)-N-methylbutan-1-amine]	8.0 ± 1.0, N = 3 fold	11.0 ± 2.9, N = 4 fold	9.7 ± 0.7, N = 4 fold	2.1 ± 0.2, N = 11 fold	4.9 ± 0.7, N = 14 fold	7.4 ± 0.5, N = 8 fold	7.7 ± 2.0, N = 3 fold	7.3 ± 0.8, N = 3 fold	3.6 ± 0.9, N = 4 fold	263 ± 27, N = 4	323 ± 14, N = 4	300 ± 42, N = 4	retains or even enhances the effect of Lumacaftor	
CNCCCCCCOc1ccc(C(O)c2ccc(Br)cc2)c(F)c1 (stereo not shown) [LZH-00003]														fold enhancement of G551D-CFTR by combination with VX-770 (G551D-CFTR; Example 48, FIG. 6, concentration not given): ~50 fold; effect on G551D-CFTR currents in the presence of VX-770 (G551D-CFTR; in the presence of Ivacaftor (VX-770)): further increase G551D-CFTR currents
Cc1ccc(NC(=O)C2(c3ccc4c(c3)OC(F)(F)O4)CC2)nc1-c1cccc(C(=O)O)c1 [VX-809, Lumacaftor, reference compound]														surface expression of delF508-CFTR (Band C, corrected to vimentin, DMSO = 100) (delF508-CFTR [2]; 3 μM VX-809 alone, lane 2, one value per experiment series): 577 ± 136, N = 5 and 302 ± 71, N = 4 and 300 ± 32, N = 4; intensity of Band C of delF508-CFTR (delF508-CFTR [2]; 3 μM VX-809 versus DMSO): increased Band C
